According to PubChem BioAssay (NCI):
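Compound exposure: 48 hours, 5 concentrations, 96-well plates. GI50 marks 50% less growth. TGI marks complete inhibition of growth.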

Legend:
Assay in all cases: growth of human tumour cells (NCI), 48 h
A498 renal = test system: A498 renal
OVCAR-8 ovarian = test system: OVCAR-8 ovarian
UACC-257 melanoma = test system: UACC-257 melanoma
MDA-MB-435 = test system: MDA-MB-435
BT-549 breast = test system: BT-549 breast
CAKI-1 renal = test system: CAKI-1 renal
OVCAR-3 ovarian = test system: OVCAR-3 ovarian
HCT-15 colon = test system: HCT-15 colon
SR leukemia = test system: SR leukemia
786-0 renal = test system: 786-0 renal

## O=c1oc2ccc(F)cc2c(=O)n1-c1ccc(Cl)cc1F
A498 renal
  GI50: 0.24 µM
  TGI: 0.796 µM
OVCAR-8 ovarian
  GI50: 2.05 µM
  TGI: 26.2 µM
UACC-257 melanoma
  GI50: 0.66 µM
  TGI: 4.54 µM
MDA-MB-435
  GI50: 0.674 µM
  TGI: 5.48 µM
BT-549 breast
  GI50: 0.488 µM
  TGI: 2.43 µM
CAKI-1 renal
  GI50: 0.36 µM
  TGI: 3.41 µM
OVCAR-3 ovarian
  GI50: 0.55 µM
  TGI: 12.5 µM
HCT-15 colon
  GI50: 1.26 µM
  TGI: 10.3 µM
SR leukemia
  GI50: 0.619 µM
  TGI: > 39.1 µM
786-0 renal
  GI50: 2.8 µM
  TGI: 8.85 µM

## COc1cc(C(=O)N2CCN(c3ccccc3OC)CC2)c(N)cc1OCc1ccccc1
A498 renal
  GI50: 30.6 µM
  TGI: 81.2 µM
OVCAR-8 ovarian
  GI50: 38.3 µM
  TGI: > 100 µM
UACC-257 melanoma
  GI50: 39 µM
  TGI: > 100 µM
MDA-MB-435
  GI50: 28.1 µM
  TGI: 76.5 µM
BT-549 breast
  GI50: 27.6 µM
  TGI: 66.8 µM
CAKI-1 renal
  GI50: 37.9 µM
  TGI: > 100 µM
OVCAR-3 ovarian
  GI50: 22.1 µM
  TGI: 58.8 µM
HCT-15 colon
  GI50: 34.9 µM
  TGI: > 100 µM
SR leukemia
  GI50: 22.5 µM
  TGI: 48.7 µM
786-0 renal
  GI50: 45.6 µM
  TGI: > 100 µM

## Oc1ccc2ccccc2c1C(c1ccc(Cl)cc1)c1c(O)ccc2ccccc12
A498 renal
  TGI: 9.36 µM
OVCAR-8 ovarian
  TGI: 19.9 µM
UACC-257 melanoma
  TGI: 15.9 µM
MDA-MB-435
  TGI: 9.49 µM
BT-549 breast
  TGI: 14.1 µM
CAKI-1 renal
  TGI: 9.08 µM
OVCAR-3 ovarian
  TGI: 9.06 µM
HCT-15 colon
  TGI: > 30.2 µM
SR leukemia
  TGI: > 25.7 µM
786-0 renal
  TGI: 12.4 µM

## N#Cc1c(-c2ccc(Cl)cc2)c(-c2ccc(Cl)cc2)nn(CCOC(=O)CCC(=O)O)c1=O
A498 renal
  TGI: 9.23 µM
OVCAR-8 ovarian
  TGI: > 78.4 µM
UACC-257 melanoma
  TGI: > 100 µM
MDA-MB-435
  TGI: 0.193 µM
BT-549 breast
  TGI: > 100 µM
CAKI-1 renal
  TGI: 22.9 µM
OVCAR-3 ovarian
  TGI: 0.853 µM
HCT-15 colon
  TGI: 4.97 µM
SR leukemia
  TGI: 25.6 µM
786-0 renal
  TGI: 55.3 µM

## CCCCCCCCCCCCSC(=NC)NC
A498 renal
  GI50: 2.63 µM
  TGI: 8.69 µM
OVCAR-8 ovarian
  GI50: 2.88 µM
  TGI: > 100 µM
UACC-257 melanoma
  GI50: 2.15 µM
  TGI: 5.14 µM
MDA-MB-435
  GI50: 1.74 µM
  TGI: 3.3 µM
BT-549 breast
  GI50: 4.09 µM
  TGI: 21 µM
CAKI-1 renal
  GI50: 1.92 µM
  TGI: 4.8 µM
OVCAR-3 ovarian
  GI50: 2 µM
  TGI: 4.82 µM
HCT-15 colon
  GI50: 1.55 µM
  TGI: 3.39 µM
SR leukemia
  GI50: 1.37 µM
  TGI: 5.32 µM
786-0 renal
  GI50: 1.88 µM
  TGI: 3.51 µM

## O=C(N/N=c1/ccoc2cccnc12)N1CCN(c2ncccn2)CC1
A498 renal
  GI50: 0.503 µM
  TGI: 2.87 µM
OVCAR-8 ovarian
  GI50: 0.031 µM
  TGI: 6.67 µM
UACC-257 melanoma
  GI50: 0.0387 µM
  TGI: 5.15 µM
MDA-MB-435
  GI50: 0.568 µM
  TGI: 8.24 µM
BT-549 breast
  GI50: 0.321 µM
  TGI: 3.37 µM
CAKI-1 renal
  GI50: 0.425 µM
  TGI: 7.64 µM
OVCAR-3 ovarian
  GI50: < 0.01 µM
  TGI: 4.46 µM
HCT-15 colon
  GI50: < 0.01 µM
  TGI: 10.1 µM
SR leukemia
  GI50: 0.153 µM
  TGI: 15.6 µM
786-0 renal
  GI50: 0.291 µM
  TGI: 2.59 µM

## CCCCCCCCCCCCCCCCOC(=O)c1c(C)[nH]c(/C=C2\N=C(c3ccc[nH]3)C=C2OC)c1C
A498 renal
  GI50: 1.51 µM
  TGI: 5.47 µM
OVCAR-8 ovarian
  GI50: 0.384 µM
  TGI: 15 µM
UACC-257 melanoma
  GI50: 9.69 µM
  TGI: > 100 µM
MDA-MB-435
  GI50: 0.307 µM
  TGI: > 100 µM
BT-549 breast
  GI50: 2.23 µM
  TGI: 20.4 µM
CAKI-1 renal
  GI50: 0.212 µM
  TGI: 30.5 µM
OVCAR-3 ovarian
  GI50: 1.67 µM
  TGI: 6.91 µM
HCT-15 colon
  GI50: 2.21 µM
  TGI: > 100 µM
SR leukemia
  GI50: 1.54 µM
  TGI: > 100 µM
786-0 renal
  GI50: 1.07 µM
  TGI: 14.4 µM

## Cc1cc(O)ccc1O
A498 renal
  GI50: 79.9 µM
  TGI: > 100 µM
OVCAR-8 ovarian
  GI50: 32.7 µM
  TGI: > 100 µM
UACC-257 melanoma
  GI50: 43.1 µM
  TGI: > 100 µM
MDA-MB-435
  GI50: 17.8 µM
  TGI: 36.6 µM
BT-549 breast
  GI50: 16.3 µM
  TGI: > 100 µM
CAKI-1 renal
  GI50: 20.7 µM
  TGI: 57.4 µM
OVCAR-3 ovarian
  GI50: 14.1 µM
  TGI: 27.9 µM
HCT-15 colon
  GI50: 16.6 µM
  TGI: 34.8 µM
SR leukemia
  GI50: 19.4 µM
  TGI: 76.6 µM
786-0 renal
  GI50: 21.2 µM
  TGI: 75.8 µM

## Cn1c(=O)c2[nH]c(C3CC(=O)CC(c4nc5c([nH]4)c(=O)n(C)c(=O)n5C)N3)nc2n(C)c1=O (stereo not given)
A498 renal
  TGI: > 100 µM
OVCAR-8 ovarian
  TGI: > 100 µM
UACC-257 melanoma
  TGI: > 100 µM
MDA-MB-435
  TGI: > 100 µM
BT-549 breast
  TGI: > 100 µM
CAKI-1 renal
  TGI: > 100 µM
OVCAR-3 ovarian
  TGI: > 100 µM
HCT-15 colon
  TGI: > 100 µM
SR leukemia
  TGI: > 100 µM
786-0 renal
  TGI: > 100 µM

## c1ccc2c(-c3nc4ccccc4[nH]3)cccc2c1
A498 renal
  GI50: 1.11 µM
  TGI: 6.52 µM
OVCAR-8 ovarian
  GI50: 4.09 µM
  TGI: 33.3 µM
UACC-257 melanoma
  GI50: 3.87 µM
  TGI: 84.4 µM
MDA-MB-435
  GI50: 0.309 µM
  TGI: 1.44 µM
BT-549 breast
  GI50: 3.3 µM
  TGI: 80 µM
CAKI-1 renal
  GI50: 3.18 µM
  TGI: > 100 µM
OVCAR-3 ovarian
  GI50: 2.17 µM
  TGI: 6.89 µM
HCT-15 colon
  GI50: 1.82 µM
  TGI: > 100 µM
SR leukemia
  GI50: 1.42 µM
  TGI: 21.4 µM
786-0 renal
  GI50: 5.5 µM
  TGI: > 100 µM

## O=C1c2cccc3cccc(c23)C(=O)N1CCCCN1CCN(CCCCOc2ccc(-c3nc4ccc(N5CCOCC5)cc4[nH]3)cc2)CC1
A498 renal
  GI50: > 100 µM
  TGI: > 100 µM
OVCAR-8 ovarian
  GI50: 8.8 µM
  TGI: > 100 µM
UACC-257 melanoma
  GI50: 15 µM
  TGI: > 100 µM
MDA-MB-435
  GI50: > 100 µM
  TGI: > 100 µM
BT-549 breast
  GI50: 35.4 µM
  TGI: > 100 µM
CAKI-1 renal
  GI50: > 100 µM
  TGI: > 100 µM
OVCAR-3 ovarian
  GI50: 12.1 µM
  TGI: > 100 µM
HCT-15 colon
  GI50: 56.2 µM
  TGI: > 100 µM
SR leukemia
  GI50: 1.68 µM
  TGI: 3.9 µM
786-0 renal
  GI50: > 100 µM
  TGI: > 100 µM
